Measurements as given in patent US10060933B2, “Methods for diagnosis and treatment of amyotrophic lateral sclerosis based on an increased level of interaction between TDP-43 polypeptide and NF-KB P65 polypeptide” (UNIVERSITE LAVAL, priority 2011, dated 2018).
“Also recorded” adds a separate entry of the source.

Experiments:
[1] = test system: GFAP promoter activity; test: In vivo bioluminescence imaging of GFAP-luc in spinal cord; design: species or system mouse; conditions: for GFAP promoter activity / GFAP-luc expression (bioluminescence) in spinal cord: GFAP-luc/TDP-43^Wt mice, 3 mg/kg i.p. twice a week for 10 weeks from 30 weeks, 36 and 40 weeks, vs untreated, 3 mg/kg
Experimental: (§1) To study the in vivo effect of NF-κB inhibition on disease progression, we injected TDP-43^wt; GFAP-luc double transgenic mice with 3 mg/kg body weight of WA twice a week for 10-weeks starting at 30-weeks. […] We used TDP-43^wt; GFAP-luc double transgenic mice because the reporter luciferase (luc) allowed the longitudinal and non-invasive biophotonic imaging with CCD camera of the GFAP promoter activity which is a target of activated NF-κB. To analyse the spatial and temporal dynamics of astrocytes activation/GFAP induction in TDP-43 mouse model, we performed series of live imaging experiments. […] The downregulation of GFAP promoter activity was further confirmed in these mice using GFAP immunofluorescence of spinal cord sections of TDP-43^Wt mice (both drug-treated and untreated) (FIG. 8F). […] Down-regulation of GFAP along with reduction in active p65 levels in withaferin treated mice prompted us to analyse behavioural changes in these mice. […] The withaferin treated mice also had 40% reduction in the number of partially denervated neuromuscular junction (NMJ) (FIGS. 8E&G).
(§2) Age matched control non-transgenic animals (n=10) and in TDP-43^Wt (n=10) littermates were injected twice a week with 0.9% saline intra-peritoneally. All the behavioral and imaging experiments were conducted in a double blind manner as such the experimenter had no knowledge of the drug treatment or the genotype of animals.
As previously described^31, 32, the images were gathered using IVIS® 200 Imaging System (CaliperLSXenogen, Alameda, Calif., USA). Twenty-five minutes prior to imaging session, the mice received intraperitoneal (i.p.) injection of the luciferase substrate D-luciferine (150 mg/kg—for mice between 20 and 25 g, […] of a solution of 20 mg/ml of D-luciferine dissolved in 0.9% saline was injected) (CaliperLS-Xenogen).

[2] = test system: GFAP-luc/TDP-43^Wt mice; test: Accelerating rotarod in TDP-43^Wt transgenic mice; format: in vivo, mouse
Experimental: as §1, §2
(§3) Accelerating rotarod was performed on mice at 4 rpm speed with 0.25 rpm/sec acceleration as described elsewhere^30. Mice were subjected to three trials per session and every two weeks.

[3] = target: T1, p65 (Mus musculus, UniProt Q04207); test: p65 EMSA on spinal cord tissue nuclear lysates; format: in vivo; conditions: treated vs untreated GFAP-luc/TDP-43^Wt mice
T1 construct: from tissue; host or cells: spinal cord of GFAP-luc/TDP-43^Wt transgenic mice (nuclear lysates)
Experimental: as §1
48 hrs after transfection of CMV-p65 with pCMV-TDP43^WT or pCMV-TDP43^G348C and treatment with LPS, BV-2 cells were harvested and nuclear extracts prepared. […] Concentrations of nuclear proteins were determined on diluted samples using a Bradford assay (Biorad). […]

[4] = test system: Mac-2 positive cells; test: Activated microglia (Mac-2, Cox-2) in spinal cord sections; format: in vivo, mouse
Experimental: as §1
(§4) 4% Paraformaldehyde (PFA) fixed spinal cord and brain sections of mice were sectioned and fixed on slides. For immunohistochemistry, tissues were treated with hydrogen-peroxide solution before permeabilisation. […]

[5] = test system: GFAP; test: GFAP immunofluorescence of spinal cord sections; format: in vivo, mouse; conditions: GFAP-luc/TDP-43^Wt mice, treated vs untreated
Experimental: as §1, §4

[6] = test system: neuromuscular junctions; test: Neuromuscular junction staining and count; format: in vivo, mouse
Experimental: For monitoring the neuromuscular junctions, 25 mm thick muscle sections were incubated for 1 h in 0.1 M glycine in PBS for 2 h at RT and then stained with Alexa Fluor 594-conjugated α-bungarotoxin (1:2000, Molecular Probes/Invitrogen detection technologies, Carlsbad, Calif., USA) diluted in 3% BSA in PBS for 3 h at RT. After washing in PBS, the muscle sections were blocked in 3% BSA, 10% goat serum and 0.5% Triton X-100 in PBS overnight at 48° C. The next day, the sections were incubated with mouse antineurofilament antibody 160 K (1:2000, Temecula, Calif., USA) and mouse anti-synaptophysin (Dako, Mississauga, ON, Canada) in the same blocking solution overnight at 48° C. After washing for 5 h, muscle sections were incubated with goat anti-mouse Alexa Fluor 488-conjugated secondary antibody (Probes/Invitrogen detection technologies, Carlsbad, Calif., USA) diluted 1:500 in blocking buffer for 3 h at RT. Three hundred neuromuscular junctions were counted per animal sample, discriminating both innervated and denervated junctions as described above. […]

[7] = Detection of Withaferin A in the CSF of mice using HPLC; format: in vivo, mouse
Experimental: FIG. 15. Detection of Withaferin A in the CSF of mice using HPLC. […] For blank samples (B), 0.9% saline was injected in non-transgenic mice. 1.5 hrs after injection, CSF samples from the mice were obtained using […] into the cistern magna. 50 μl of the sample was mixed with 60% ACN 0.1% formic acid, centrifuged and the supernatant was injected into HPLC. […] 1000 ng/ml withaferin-a chemical served as a standard (C). Withaferin retention time was 1.6 mins.

[8] = test system: TDP-43^G348C mice; test: Accelerating rotarod in TDP-43^G348C mice; format: in vivo, mouse; conditions: WA-treated vs untreated TDP-43^G348C mice
Experimental: Accelerating rotarod analysis was performed in TDP-43^G348C mice at various ages from 8 wk to 52 wk, and time taken by the mice to fall from the rotarod is used as rotarod performance. WA treatment period is marked as drug treatment period. Error bars represent mean±SEM (n=10 each group) (FIG. 25).
as §3

[9] = withaferin treated TDP-43 transgenic mice after cessation of treatment

T1 sequence (Q04207 whole entry): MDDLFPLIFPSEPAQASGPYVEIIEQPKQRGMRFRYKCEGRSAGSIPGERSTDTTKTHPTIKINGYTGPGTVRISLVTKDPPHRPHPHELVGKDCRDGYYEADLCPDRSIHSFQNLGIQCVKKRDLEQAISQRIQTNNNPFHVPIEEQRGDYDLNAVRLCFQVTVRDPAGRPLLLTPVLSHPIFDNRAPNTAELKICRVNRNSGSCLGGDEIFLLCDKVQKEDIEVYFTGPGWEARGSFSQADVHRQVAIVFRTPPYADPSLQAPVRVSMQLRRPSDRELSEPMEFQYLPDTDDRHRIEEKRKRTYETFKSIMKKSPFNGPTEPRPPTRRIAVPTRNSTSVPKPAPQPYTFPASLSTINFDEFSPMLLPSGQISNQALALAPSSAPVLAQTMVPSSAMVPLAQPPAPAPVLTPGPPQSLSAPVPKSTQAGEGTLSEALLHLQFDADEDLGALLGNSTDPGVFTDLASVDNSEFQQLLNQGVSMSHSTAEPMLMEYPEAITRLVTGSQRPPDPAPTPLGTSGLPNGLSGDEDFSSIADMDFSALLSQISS

CC1=C(CO)C(=O)O[C@@H]([C@@H](C)[C@H]2CC[C@H]3[C@@H]4C[C@H]5O[C@]56[C@@H](O)C=CC(=O)[C@]6(C)[C@H]4CC[C@]23C)C1 [Withaferin A]
GFAP promoter activity / GFAP-luc expression (bioluminescence) in spinal cord [1]: Significant reduction | GFAP promoter activity / GFAP-luc expression (bioluminescence) in spinal cord ([1]; listed as WA): progressive reduction in GFAP-luc expression | GFAP luciferase activity after cessation of the drug treatment [1, 9]: increase in GFAP luciferase activity | rotarod performance ([2]; GFAP-luc/TDP-43^Wt mice, 3 mg/kg i.p. twice a week for 10 weeks, vs untreated, 3 mg/kg): significantly better motor performance; also recorded: much better rotarod performance | ameliorated motor impairment compared to untreated mice ([2]; TDP-43^WT or TDP-43^G348C transgenic mice): at least 4% | rotarod performance after cessation of the drug treatment [2, 9]: decrease in rotarod performance | nuclear active p65 (EMSA) [3]: reduced amount of active p65; also recorded: much reduced nuclear active p65 | Mac-2^+ cells in L5 spinal cord ([4]; TDP-43^Wt (Withaferin treated) mice, untreated 13000±500/mm^3): 6000±300 /mm^3 | activated microglia (Mac-2 and Cox-2 double immunofluorescence) ([4]; TDP-43^Wt mice, treated vs untreated): marked reduction in activated microglia | GFAP activation (GFAP immunofluorescence of spinal cord sections) [5]: downregulation; also recorded: significantly low GFAP activation | reduction in the number of partially denervated neuromuscular junction (NMJ) ([6]; withaferin treated TDP-43^Wt mice vs untreated): 40% | number of partially denervated muscle (NMJ frequency) ([6]; withaferin treated TDP-43^Wt mice, age-matched untreated 15±5%): 9±4% | Withaferin A in CSF (HPLC) ([7]; 3 mg/kg intra-peritoneally, CSF 1.5 hrs after injection, 8-months old non-transgenic and TDP-43^Wt mice): presence of Withaferin-A | passage of the blood-brain barrier ([7]; mice, FIG. 15): passes the blood-brain barrier | motor performance (accelerating rotarod, time to fall) [8]: significantly better motor performance
